Measurements reported in patent US20050019855A1, “Methods to increase the productivity of meterologous gene expression” (priority 2001, published 2005).

Experiments:
Type in all cases: cell-based, Nicotiana tabacum
tobacco protoplasts [1] = assay: Transient expression transport assay: secretion index and total activity of α-amylase cargo molecules
Excerpt: (§1) Tobacco leaf protoplasts were electroporated as described (Denecke and Vitale, 1995), and plasmid concentrations used are given in the figure legends. Harvesting of cells and culture medium as well as the enzymatic assays were done as described previously (Denecke and Vitale, 1995; Crofts et al., 1999; Leborgne-Castel et al., 1999). Equal volumes of cells and medium were loaded on protein gel blots or analysed via enzymatic assays to determine the fraction of the marker proteins inside and outside of the cells and to calculate the secretion index (Denecke et al., 1990). Membrane recruitment was assessed by an osmotic shock procedure described previously (Denecke et al., 1990; Denecke et al., 1992).
Protoplasts were extracted in α-amylase extraction buffer (Crofts et al., 1999) via sonication for 5 seconds. In all cases, extracts were cleared by 10 min centrifugation at 2500 g at 4° C. and the supernatant was recovered. α-amylase activity was determined as described (Crofts et al., 1999).
It is established that the molecular target of BFA is the guanosine nucleotide exchange factor for ARF1p, resulting in a stabilisation of an abortive complex with the GDP-bound form of ARF1p at the Golgi membrane. To test if inhibition of retrograde and anterograde transport can be dissected, we decided to utilise the secreted cargo molecule α-amylase (amy) and its derivative carrying an ER retention signal (amy-HDEL), which permits a quantitative analysis of transport rates in tobacco leaf protoplasts (FIGS. 1-6). We have shown before that the secretion index (SI), the ratio between extra- and intracellular activities, provides a simple way to compare relative transport rates at a defined time-point. In addition, amy and amy-HDEL have identical specific enzyme activity and stability throughout the secretory pathway. While both molecules are expected to have identical ER export properties (FIG. 16, route 1), only amy-HDEL can undergo retrograde transport from the Golgi (FIG. 16, route 2). If saturation of the HDEL receptor occurs, amy-HDEL is expected to reach the cell surface in the same manner as amy (FIG. 16, routes 3 and 7). We now tested the influence of different concentrations of BFA on the transport of either cargo molecules via transient gene expression in tobacco protoplasts. […] This effect is less obvious for amy-HDEL.

[2] = test system: stably transformed tobacco cells; assay: Transport time course in protoplasts from stably transformed tobacco cells incubated with BFA; details: stable transformants, 30 μg/ml BFA, 240 minute period (FIG. 18)
Method: The experiment shown in FIG. 17 was conducted using a standard transient expression assay with a 24-hour incubation period. This is a long time-period and it is possible that prolonged inhibition of the recycling of essential COPII vesicle budding components leads eventually to an inhibition of anterograde transport. […] To test this, we have carried out a transport experiment in which stably transformed tobacco cells were incubated for different time-periods in the presence of BFA. Under these circumstances, protoplasts contain a steady state level of amy or amy-HDEL from the very beginning of the experiment. This steady state level is very high for amy-HDEL, thus secretion of the cargo into the medium should be detected with high sensitivity if BFA first inhibits […] retrograde transport while COPII anterograde transport is still efficient. […] It was not possible to detect a transient induction of amy-HDEL secretion prior to the inhibition of amy secretion.

tobacco protoplasts [3] = assay: Transient expression transport assay for phytepsin, read by protein gel blot of medium and cells; details: increasing BFA concentration (FIG. 22)
Excerpt: Transient expression experiment showing the influence of BFA (indicated above each lane in μg/ml final concentration) on secretion to the medium (M), intracellular retention (C) and the partitioning between processed (closed arrows) and un-processed (open arrows) forms of phyteposin. Note that BFA inhibits both secretion and intracellular processing of phytepsin.
as §1
Samples were loaded after twofold dilution with 2×SDS-PAGE loading buffer (200 mM Tris-Cl, pH 8.8, 5 mM EDTA, 1 M sucrose, and 0.1% bromophenol blue). Proteins in SDS-polyacrylamide gels were transferred onto a nitrocellulose membrane and then blocked with PBS, 0.5% Tween 20, and 5% milk powder for 1 hr. […]

[4] = 24-hour incubation, increasing BFA concentration (FIG. 17)

With `C[C@H]1CCC/C=C/[C@@H]2C[C@H](O)C[C@H]2[C@H](O)/C=C/C(=O)O1` [BFA, Brefeldin A] as the compound, how does the “total activity (medium+cells) of amy-HDEL” value (tobacco protoplasts [1]; 24-hour incubation, BFA present (FIG. 17 lower panel)) read?
The value was “slightly increased total activity for amy-HDEL”.

What about the “total amount of α-amylase (amy) produced (medium+cells)” value (tobacco protoplasts [1]; 24-hour incubation, BFA treatment (FIG. 17)) of the same compound?
The value was “reduction in the total amount of α-amylase”.

And the “secretion of amy-HDEL, secretion index” value (tobacco protoplasts [1]; [4])?
Its value is “hardly influenced by the drug”.

And the “secretion of α-amylase (amy), secretion index” value (tobacco protoplasts [1]; [4])?
The value was “concentration-dependent inhibition of α-amylase secretion”.

What about the “secretion of amy-spo to the medium” value (tobacco protoplasts [1]; increasing BFA concentration (FIG. 25B)) of the same compound?
The value was “does not induce secretion of the cargo molecule”.

What about the “secretion of amy, secretion index over time” value [2] of the same compound?
The value was “only inhibits the secretion of amy”.

And the “secretion of amy-HDEL, secretion index over time” value [2]?
The value was “slightly induced after prolonged incubation (80 minutes and more)”.

What about the “intracellular processing of the phytepsin precursor” value (tobacco protoplasts [3]) of the same compound?
Its value is “inhibits processing of the phytepsin precursor”.

And the “secretion of phytepsin precursor to the medium” value (tobacco protoplasts [3])?
Its value is “secretion was inhibited at the lowest concentration of BFA used”.
